This is an account of results in patent publication EP0355353A2, “Cycloalkylthiazole derivatives” (F. HOFFMANN-LA ROCHE AG, priority 1988, dated 1990).

The target in assay [1] is T1, Leukotriene D₄ Receptor (Cavia porcellus, UniProt Q2NNR5).
T1 construct: from tissue; host or cells: guinea pig lung crude membrane fraction
T1 sequence (Q2NNR5 1-340): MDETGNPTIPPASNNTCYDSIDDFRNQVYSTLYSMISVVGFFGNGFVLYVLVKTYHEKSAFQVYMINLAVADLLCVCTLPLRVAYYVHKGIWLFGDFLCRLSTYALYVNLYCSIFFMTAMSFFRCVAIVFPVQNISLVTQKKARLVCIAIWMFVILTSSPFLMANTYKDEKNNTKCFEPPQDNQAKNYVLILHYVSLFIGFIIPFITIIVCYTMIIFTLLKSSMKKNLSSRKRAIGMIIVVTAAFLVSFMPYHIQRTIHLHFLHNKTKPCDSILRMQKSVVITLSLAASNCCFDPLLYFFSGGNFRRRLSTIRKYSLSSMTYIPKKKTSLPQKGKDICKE
The assay is described as follows: Leukotriene D₄ Receptor Binding Assay (Guinea Pig Lung Homogenate), displacement of ³H-LTD₄. To be noted: guinea pig lung membrane homogenate, 3.5 nM ³H-LTD₄, 20°C, 30 minutes; read-out: LTD₄ Binding IC₅₀. How it is done: Leukotriene D₄ Receptor Binding Assay (Guinea Pig Lung Homogenate) […]
a) Preparation of membrane homogenate
Male albino guinea pigs (Hartley strain, 400-500 g body weight) were sacrificed by decapitation. The lungs were removed, frozen in liquid nitrogen and stored at -70° until use. The frozen tissue (5 g) was thawed, minced into small pieces and rinsed in phosphate-buffered saline. The tissue was placed in 40 ml homogenization buffer containing 0.25 M sucrose, 10 mM Tris-HCl, (pH 7.5), and the following protease inhibitors: soybean trypsin inhibitor (5 µg/ml) bacitracin (100 µg/ml), benzamidine (10⁻³M) and phenylmethylsulfonyl fluoride ([…]). The protease inhibitors were included to inhibit proteolysis during the processes of homogenization and centrifugation. The tissue was then homogenized at 0-4°C with a Brinkman PT-20 polytron for a total of 1 minute (10 second pulses at a setting of 6). The homogenate was centrifuged (1000 x g for 10 minutes) to remove tissue clumps, unbroken cells and nuclei. The supernatant was recentrifuged at 30,000 x g for 30 minutes to yield pellets which were referred to as crude membrane fractions. This fraction was then resuspended in the incubation buffer (10 mM Pipes buffer, pH 7.5, 50 mM NaCl), homogenized in a Teflon homogenizer and recentrifuged at 30,000 x g for 30 minutes. The pellets were finally resuspended in the incubation buffer with a Teflon homogenizer at a concentration of 10 to 20 mg/ml of protein in the suspension. The concentrations of proteins were determined using the Biorad reaction kit. […]
b) Receptor-Ligand Binding Assay
Optimum assay conditions were determined with an assay mixture containing: Tyrode solution; 0.1% bovine serum albumin (BSA); 1 mM glycine; 1 mM cysteine; 3.5 nM ³H-LTD₄ and the membrane preparation (100-200 µg protein) in a final volume of 250 µl. The incubation was carried out at 20°C for 30 minutes. At 20°C, binding increased linearly with protein concentration, reached equilibrium in 20 minutes, was saturable, and reversible upon additions of unlabelled LTD₄. Separation of bound from free ³H-LTD₄ was performed by rapid filtration on GF/C glass fiber filters and washing with two 4 ml aliquots of Tyrode solutions containing 0.1% BSA. Radioactivity remaining on the filters was measured in 10 ml of Aquasol. Specific binding was defined as that displaced by 10⁻⁶M unlabelled LTD₄ and was 95% of total binding.

Assay [2] deals with LTD₄-Induced Bronchoconstriction. As to the kind of experiment: Leukotriene-Induced Bronchoconstriction in Guinea Pigs - in vivo leukotriene D₄ (LTD) antagonist test, intravenous and oral testing. Particulars: for LTD₄-Induced Bronchoconstriction (ID₅₀) i.v.: intravenous route; for LTD₄-Induced Bronchoconstriction (ID₅₀) i.v. / LTD₄-Induced Bronchoconstriction (ID₅₀) p.o.: increasing doses, value in parentheses; for Duration 10 mg/kg p.o. 4 hr.: inhibition with LTD challenge 4 hr. after administration; for Duration 10 mg/kg p.o. 8 hr.: inhibition with LTD challenge 8 hr. after administration; for inhibition at 10 mg/kg / inhibition at 1 mg/kg: Cavia porcellus; for inhibition at 10 mg/kg: 2 h, two hours prior to LTD challenge (25 µg/kg i.v.); for Duration 10 mg/kg p.o. 4 hr. / Duration 10 mg/kg p.o. 8 hr. / inhibition at 10 mg/kg / Duration 10 mg/kg p.o. 18 hr.: 10 mg/kg p.o.; for inhibition at 1 mg/kg: iv, 1 mg/kg i.v., 1 minute before LTD challenge (25 µg/kg i.v.), change in tracheal pressure; for LTD₄-Induced Bronchoconstriction (ID₅₀) p.o.: oral route, two hours prior to challenge; for Duration 10 mg/kg p.o. 18 hr.: inhibition with LTD challenge 18 hr. after administration. Also on record: LTD₄-Induced Bronchoconstriction (ID₅₀) i.v. / LTD₄-Induced Bronchoconstriction (ID₅₀) p.o.: unit not given here. On the procedure:
Leukotriene-Induced Bronchoconstriction in Guinea Pigs - In vivo leukotriene D₄ (LTD) antagonist test
Intravenous and Oral Testing
Male guinea pigs (Hartley strain Charles River) weighing 300-500 g were anesthetized with urethane (∼2 g/kg) intraperitoneally and a polyethylene cannula was inserted into the jugular vein for intravenous drug administration. Tracheal pressure (cm of H₂0) was recorded from a Statham pressure transducer (P 32 AA). Propranolol was administered 5 minutes prior to challenge with LTD. Two minutes later spontaneous breathing was arrested with succinylcholine chloride (1.2 mg/kg) administered intravenously and the animals were ventilated with a Harvard (Model #680) small animal respirator set a 40 breaths/min and 4.0 cc stroke volume. Control vehicle or test drug was administered through the cannula into the jugular vein 1 minute before the animals were challenged intravenously with a maximum constrictory dose of LTD (25 µg/kg) given intravenously. The change in tracheal pressure was averaged for control and drug-treated animals and percent inhibition was calculated. For determination of oral activity, animals were dosed with test compound or vehicle two hours prior to challenge with LTD (25 µg/kg. i.v.).
The relative potency (ID₅₀ values) of test compounds administered by the intravenous and oral route was determined by administering increasing doses of test compound. For determination of the time course of inhibition for various compounds, the time between administration of compound and challenge with LTD was varied. The time course of activity was calculated as the time when inhibition decreased to 40%.

As for `CC(CC(=O)Nc1cccc(/C=C/c2nc(C3CCC3)cs2)c1)C(=O)O` (centres unmarked) [(E)-4-[[3-(2-(4-cyclobutyl-2-thiazolyl)ethenyl]phenyl]amino]-2-methyl-4-oxobutanoic acid], the IC50 in assay [1] is 110 nM. Moreover, in assay [2], the “LTD₄-Induced Bronchoconstriction (ID₅₀) i.v.” value is reported as “(0.61)”.
For orientation: inhibition means how much of the control response was suppressed. For the molecule `CCC(CC)(CC(=O)Nc1cccc(/C=C/c2nc(C3CCC3)cs2)c1)C(=O)O` [(E)-4-[[3-[2-(4-cyclobutyl-2-thiazolyl)ethenyl]phenyl]amino]-2,2-diethyl-4-oxobutanoic acid], the IC50 in assay [1] is 15 nM. Moreover, in assay [2], the “Duration 10 mg/kg p.o. 4 hr.” value turned out to be 100±0, the “Duration 10 mg/kg p.o. 8 hr.” value came out at 98±1, 10 mg/kg produced 99 ± 1% inhibition and testing at 1 mg/kg gave an inhibition of 98%. In assay [2], the “LTD₄-Induced Bronchoconstriction (ID₅₀) i.v.” value is listed as 0.13 and the “LTD₄-Induced Bronchoconstriction (ID₅₀) p.o.” value is on record as 0.12.
As to `CCC(CC)(CC(=O)Nc1cccc(/C=C/c2nc(C3CCCCC3)cs2)c1)C(=O)O` [(E)-4-[[3-[2-(4-cyclohexyl-2-thiazolyl)ethenyl]phenyl]amino]-2,2-diethyl-4-oxobutanoic acid], in assay [1], the IC50 is 80 nM. Also, in assay [2], the “Duration 10 mg/kg p.o. 4 hr.” value is reported as 69±12, the “Duration 10 mg/kg p.o. 8 hr.” value amounted to 81±9, the “Duration 10 mg/kg p.o. 18 hr.” value is recorded as 38+4 and the inhibition at 10 mg/kg was 87 ± 6%. Besides, in assay [2], testing at 1 mg/kg gave an inhibition of 96 ± 2%, the “LTD₄-Induced Bronchoconstriction (ID₅₀) i.v.” value was determined as 0.31 and the “LTD₄-Induced Bronchoconstriction (ID₅₀) p.o.” value is reported as 0.66.
On to `CCC(CC)(CC(=O)Nc1cccc(/C=C/c2nc(C3CCCC3)cs2)c1)C(=O)O` [(E)-4-[[3-[2-(4-cyclopentyl-2-thiazolyl)ethenyl]phenyl]amino]-2,2-diethyl-4-oxobutanoic acid], for which the IC50 in assay [1] stood at 60 nM. For the same molecule, in assay [2], the “Duration 10 mg/kg p.o. 4 hr.” value was 99+1, the “Duration 10 mg/kg p.o. 8 hr.” value is 98+1, the “Duration 10 mg/kg p.o. 18 hr.” value is recorded as 70±7 and the inhibition at 10 mg/kg turned out to be 97 ± 1%. In addition, in assay [2], the inhibition at 1 mg/kg worked out at 99 ± 1%, the “LTD₄-Induced Bronchoconstriction (ID₅₀) i.v.” value came to 0.08 and the “LTD₄-Induced Bronchoconstriction (ID₅₀) p.o.” value is listed as 0.34.
For `CCC(CC)(CC(=O)Nc1cccc(/C=C/c2nc(C3CC3)cs2)c1)C(=O)O` [(E)-4-[[3-[2-(4-cyclopropyl-2-thiazolyl)ethenyl]phenyl]amino]-2,2-diethyl-4-oxobutanoic acid], the IC50 in assay [1] came out at 20 nM. Besides, in assay [2], the “Duration 10 mg/kg p.o. 4 hr.” value is given as 99±1, the “Duration 10 mg/kg p.o. 8 hr.” value is reported as 95±1, the “Duration 10 mg/kg p.o. 18 hr.” value worked out at 61±6 and the inhibition at 10 mg/kg was determined as 98 ± 1%. Besides, in assay [2], at 1 mg/kg the inhibition was 94 ± 2%, the “LTD₄-Induced Bronchoconstriction (ID₅₀) i.v.” value worked out at 0.18 and the “LTD₄-Induced Bronchoconstriction (ID₅₀) p.o.” value was 1.1.
Turning to `O=C(O)CCC(=O)Nc1cccc(/C=C/c2nc(C3CC3)cs2)c1` [(E)-4-[[3-[2-(4-cyclopropyl-2-thiazolyl)ethenyl]phenyl]amino]-4-oxobutanoic acid], the IC50 in assay [1] is 4000 nM. In addition, 1 mg/kg produced 15 ± 4% inhibition in assay [2].
